Key:
[1] = biological target: T1, Human κ-Opioid (KOP) (Homo sapiens, UniProt P41145); assay: Radioligand binding, human κ-opioid (KOP) membranes, filtration, [3H]-Diprenorphine; conditions: compound at 10 μM; human κ-opioid (KOP) membranes
T1 construct: purchased Perkin Elmer Biosignal
Procedure, shortened: (§1)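 Percent inhibition of radioligand binding measured on recombinant human membranes: NK1 with [125I]-Substance P, KOP with [3H]-Diprenorphine. Incubation 1 h at room temperature, then harvest onto 0.3% PEI-soaked filters, cold Tris-HCl pH 7.4 washes and scintillation counting; non-specific binding from reference ligand wells.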

[2] = biological target: T2, Human neurokinin (NK1) (Homo sapiens, UniProt P25103); assay: Radioligand binding, human neurokinin NK1 membranes, filtration, [125I]-Substance P; conditions: compound at 10 μM; human neurokinin NK1 membranes
T2 construct: purchased Perkin Elmer Biosignal
T2 sequence (P25103 whole entry): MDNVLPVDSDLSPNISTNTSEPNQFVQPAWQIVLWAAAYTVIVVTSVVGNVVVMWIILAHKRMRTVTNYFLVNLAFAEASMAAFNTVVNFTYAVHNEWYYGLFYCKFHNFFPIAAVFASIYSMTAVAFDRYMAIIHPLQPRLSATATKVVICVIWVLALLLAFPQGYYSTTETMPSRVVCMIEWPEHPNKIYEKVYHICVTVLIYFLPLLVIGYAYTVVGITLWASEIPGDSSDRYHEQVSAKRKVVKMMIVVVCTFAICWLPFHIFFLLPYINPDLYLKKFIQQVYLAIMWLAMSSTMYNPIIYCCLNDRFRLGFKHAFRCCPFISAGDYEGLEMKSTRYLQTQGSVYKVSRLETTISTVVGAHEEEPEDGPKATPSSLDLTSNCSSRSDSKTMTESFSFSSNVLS
Procedure, shortened: as §1

[3] = biological target: T3, Mouse urotensin (mUR2) (Mus musculus, UniProt Q8VIH9); assay: Radioligand binding, mouse urotensin mUR2 membranes, FlashPlate, [125I]-Urotensin II; conditions: compound at 10 μM; mouse urotensin mUR2 membranes
T3 construct: purchased Perkin Elmer Biosignal
T3 sequence (Q8VIH9 1-385): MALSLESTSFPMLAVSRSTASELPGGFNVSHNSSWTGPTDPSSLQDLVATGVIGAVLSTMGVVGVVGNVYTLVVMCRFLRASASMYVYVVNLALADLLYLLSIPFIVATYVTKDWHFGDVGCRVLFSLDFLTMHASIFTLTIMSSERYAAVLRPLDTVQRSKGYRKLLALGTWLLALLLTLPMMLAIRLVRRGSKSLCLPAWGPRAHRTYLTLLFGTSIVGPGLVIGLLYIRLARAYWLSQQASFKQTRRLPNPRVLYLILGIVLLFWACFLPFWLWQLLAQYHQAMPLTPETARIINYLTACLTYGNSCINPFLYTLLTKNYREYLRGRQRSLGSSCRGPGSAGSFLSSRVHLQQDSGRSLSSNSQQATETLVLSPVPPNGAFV
Procedure, shortened: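 Cloned mouse urotensin (mUR2) receptor membranes from Perkin Elmer Biosignal were immobilized in FlashPlate microplates using a proprietary coating. Each well got 19.5 μl buffer, then 0.5 μl of DMSO, reference ligand, or compound. Adding 5 μl of [125I]-Urotensin II, diluted to 5× final concentration in binding buffer, started binding. Plates were sealed with TopSeal-A and incubated 1 hour at room temperature in the dark. Wells were counted for 30 seconds each on a TopCount after a 60-second delay, and percentage inhibition was calculated.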

[4] = biological target: T4, Human Melanocortin (MC3) (Homo sapiens, UniProt P41968); assay: Radioligand binding, human melanocortin MC3 membranes, FlashPlate, [125I]-NDP-αMSH; conditions: compound at 10 μM; human melanocortin MC3 membranes
T4 construct: purchased Perkin Elmer Biosignal
T4 sequence (P41968 whole entry): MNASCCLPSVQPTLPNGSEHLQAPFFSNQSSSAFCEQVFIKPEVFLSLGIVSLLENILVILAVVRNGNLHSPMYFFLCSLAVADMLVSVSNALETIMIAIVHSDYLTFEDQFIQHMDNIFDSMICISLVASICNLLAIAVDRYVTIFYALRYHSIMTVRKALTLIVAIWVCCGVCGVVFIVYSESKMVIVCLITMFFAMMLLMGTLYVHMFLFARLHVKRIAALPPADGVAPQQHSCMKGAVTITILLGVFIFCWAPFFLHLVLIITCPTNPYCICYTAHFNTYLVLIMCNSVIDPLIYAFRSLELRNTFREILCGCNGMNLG
Procedure, shortened: (§2)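 Cloned human receptor membranes were coated onto FlashPlate wells and incubated with radioligand and compound (added from a 0.5 mM DMSO daughter plate) for 1 hour at room temperature in the dark. Scintillation counting gave percent inhibition, with DMSO defining total and reference ligand defining non-specific binding.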

[5] = biological target: T5, Human neuropeptide Y (NPY-Y1) (Homo sapiens, UniProt P25929); assay: Radioligand binding, human neuropeptide Y NPY-Y1 membranes, FlashPlate, [125I]-PYY; conditions: compound at 10 μM; human NPY-Y1 membranes
T5 construct: purchased Perkin Elmer Biosignal
T5 sequence (P25929 1-384): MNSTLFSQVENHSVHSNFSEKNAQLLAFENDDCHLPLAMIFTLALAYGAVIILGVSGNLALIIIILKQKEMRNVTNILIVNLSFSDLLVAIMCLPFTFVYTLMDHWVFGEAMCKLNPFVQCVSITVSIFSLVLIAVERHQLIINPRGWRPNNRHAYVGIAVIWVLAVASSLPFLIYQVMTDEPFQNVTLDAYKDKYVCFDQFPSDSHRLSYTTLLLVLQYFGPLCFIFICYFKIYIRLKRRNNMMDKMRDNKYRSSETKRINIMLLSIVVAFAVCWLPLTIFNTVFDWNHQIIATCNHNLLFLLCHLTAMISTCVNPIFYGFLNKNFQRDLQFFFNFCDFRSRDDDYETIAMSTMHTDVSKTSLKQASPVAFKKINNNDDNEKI
Procedure, shortened: as §2

[6] = biological target: T6, Human δ-opioid (DOP) (Homo sapiens, UniProt P41143); assay: Radioligand binding, human δ-opioid (DOP) membranes, FlashPlate, [3H]-Bremazocine; conditions: compound at 10 μM; human δ-opioid (DOP) membranes
T6 construct: purchased Perkin Elmer Biosignal
T6 sequence (P41143 whole entry): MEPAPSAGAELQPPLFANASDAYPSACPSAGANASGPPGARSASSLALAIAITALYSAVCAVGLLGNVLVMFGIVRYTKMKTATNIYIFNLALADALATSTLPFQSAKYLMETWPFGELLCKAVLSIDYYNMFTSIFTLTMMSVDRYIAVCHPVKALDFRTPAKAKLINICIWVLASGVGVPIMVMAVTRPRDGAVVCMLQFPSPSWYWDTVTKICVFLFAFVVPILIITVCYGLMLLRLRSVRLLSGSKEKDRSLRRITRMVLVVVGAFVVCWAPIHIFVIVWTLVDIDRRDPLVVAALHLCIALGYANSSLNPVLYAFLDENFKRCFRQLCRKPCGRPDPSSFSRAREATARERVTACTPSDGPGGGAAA
Procedure, shortened: as §2

[7] = biological target: T7, Human melanocortin (MC5) (Homo sapiens, UniProt P33032); assay: Radioligand binding, human melanocortin MC5 membranes, FlashPlate, [125I]-NDP-αMSH; conditions: compound at 10 μM; human melanocortin MC5 membranes
T7 construct: purchased Perkin Elmer Biosignal
T7 sequence (P33032 whole entry): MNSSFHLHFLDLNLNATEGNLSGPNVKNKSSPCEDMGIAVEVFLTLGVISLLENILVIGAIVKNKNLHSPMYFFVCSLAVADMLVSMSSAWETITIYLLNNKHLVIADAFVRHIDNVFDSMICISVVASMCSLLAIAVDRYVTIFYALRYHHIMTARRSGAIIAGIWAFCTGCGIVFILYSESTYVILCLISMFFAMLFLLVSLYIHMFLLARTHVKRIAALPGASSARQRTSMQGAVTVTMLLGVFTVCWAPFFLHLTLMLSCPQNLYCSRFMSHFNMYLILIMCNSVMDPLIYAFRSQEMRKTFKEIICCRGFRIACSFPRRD
Procedure, shortened: as §2

[8] = biological target: T8, Human Melanocortin (MC4) (Homo sapiens, UniProt P32245); assay: Radioligand binding, human melanocortin MC4 membranes, FlashPlate, [125I]-NDP-αMSH; conditions: compound at 10 μM; human melanocortin MC4 membranes
T8 construct: purchased Perkin Elmer Biosignal
T8 sequence (P32245 whole entry): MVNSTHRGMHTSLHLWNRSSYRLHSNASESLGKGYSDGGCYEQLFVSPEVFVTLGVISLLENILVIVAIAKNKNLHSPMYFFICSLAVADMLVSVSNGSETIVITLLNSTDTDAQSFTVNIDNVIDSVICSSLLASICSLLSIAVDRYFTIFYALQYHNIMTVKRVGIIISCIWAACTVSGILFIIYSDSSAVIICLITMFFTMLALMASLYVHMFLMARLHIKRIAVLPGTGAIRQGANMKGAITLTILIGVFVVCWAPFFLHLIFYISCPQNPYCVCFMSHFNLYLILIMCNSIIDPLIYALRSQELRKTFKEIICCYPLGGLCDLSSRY
Procedure, shortened: as §2

[9] = biological target: T9, Human opioid (ORL1) (Homo sapiens, UniProt P41146); assay: Radioligand binding, human opioid ORL1 membranes, FlashPlate, [125I]-Nociceptin; conditions: compound at 10 μM; human ORL1 membranes
T9 construct: purchased Perkin Elmer Biosignal
T9 sequence (P41146 whole entry): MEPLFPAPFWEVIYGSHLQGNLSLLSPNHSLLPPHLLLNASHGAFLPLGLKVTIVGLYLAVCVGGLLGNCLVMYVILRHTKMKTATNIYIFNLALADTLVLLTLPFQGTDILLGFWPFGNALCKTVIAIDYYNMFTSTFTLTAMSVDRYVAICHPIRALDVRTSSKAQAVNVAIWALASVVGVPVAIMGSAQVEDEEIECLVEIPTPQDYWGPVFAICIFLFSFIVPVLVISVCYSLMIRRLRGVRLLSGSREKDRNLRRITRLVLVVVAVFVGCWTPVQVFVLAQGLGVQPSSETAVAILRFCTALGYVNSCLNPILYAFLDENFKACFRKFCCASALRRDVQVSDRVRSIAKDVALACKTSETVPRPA
Procedure, shortened: as §2

[10] = biological target: T10, Human melanin-concentrating hormone (MCH1) (Homo sapiens, UniProt Q99705); assay: Radioligand binding, human melanin-concentrating hormone MCH1 membranes, FlashPlate, [125I]-S36057; conditions: compound at 10 μM; human MCH1 membranes
T10 construct: purchased Perkin Elmer Biosignal
T10 sequence (Q99705 whole entry): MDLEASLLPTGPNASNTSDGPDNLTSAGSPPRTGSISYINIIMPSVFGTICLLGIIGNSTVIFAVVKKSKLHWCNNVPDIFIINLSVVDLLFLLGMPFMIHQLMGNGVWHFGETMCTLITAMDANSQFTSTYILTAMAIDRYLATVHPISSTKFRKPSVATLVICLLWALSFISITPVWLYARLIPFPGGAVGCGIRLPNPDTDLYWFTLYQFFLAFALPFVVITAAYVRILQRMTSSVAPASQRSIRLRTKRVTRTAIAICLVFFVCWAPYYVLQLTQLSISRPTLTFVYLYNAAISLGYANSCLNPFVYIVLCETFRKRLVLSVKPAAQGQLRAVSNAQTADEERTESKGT
Procedure, shortened: as §2

[11] = biological target: T11, Human μ-opioid (MOP) (Homo sapiens, UniProt P35372); assay: Radioligand binding, human μ-opioid (MOP) membranes, FlashPlate, [3H]-Naloxone; conditions: compound at 10 μM; human μ-opioid (MOP) membranes
T11 construct: purchased Perkin Elmer Biosignal
T11 sequence (P35372 whole entry): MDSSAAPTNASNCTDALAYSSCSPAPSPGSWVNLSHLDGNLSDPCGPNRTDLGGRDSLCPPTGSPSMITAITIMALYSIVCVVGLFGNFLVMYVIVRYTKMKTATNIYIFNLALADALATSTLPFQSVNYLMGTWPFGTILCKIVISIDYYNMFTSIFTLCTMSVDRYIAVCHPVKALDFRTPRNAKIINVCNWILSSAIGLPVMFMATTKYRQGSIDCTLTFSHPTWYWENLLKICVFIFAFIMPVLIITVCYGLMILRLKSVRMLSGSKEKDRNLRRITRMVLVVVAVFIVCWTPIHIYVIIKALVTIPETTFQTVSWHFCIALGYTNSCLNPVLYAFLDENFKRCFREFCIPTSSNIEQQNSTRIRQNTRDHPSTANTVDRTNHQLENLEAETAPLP
Procedure, shortened: as §2

T1 sequence (P41145 whole entry): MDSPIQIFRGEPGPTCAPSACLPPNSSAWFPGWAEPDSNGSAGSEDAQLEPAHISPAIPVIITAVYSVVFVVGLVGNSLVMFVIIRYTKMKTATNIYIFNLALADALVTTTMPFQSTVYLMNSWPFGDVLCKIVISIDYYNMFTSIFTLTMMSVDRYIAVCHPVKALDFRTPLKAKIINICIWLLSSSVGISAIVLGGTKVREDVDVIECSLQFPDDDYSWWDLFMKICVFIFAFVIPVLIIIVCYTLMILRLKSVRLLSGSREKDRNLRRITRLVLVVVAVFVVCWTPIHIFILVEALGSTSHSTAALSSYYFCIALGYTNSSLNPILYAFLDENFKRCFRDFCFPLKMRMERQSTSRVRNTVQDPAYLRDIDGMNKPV

CO[C@H]1[C@H](O)[C@@H](COCc2ccc3ccccc3c2)OC(OCc2ccc3ccccc3c2)[C@@H]1NC(=O)CCNC(=N)N (stereo partly drawn) [compound 71]
A2 radioligand binding inhibition [1]: + (“+” indicates greater than 50% inhibition at 10 μM)
A8 radioligand binding inhibition [2]: + (“+” indicates greater than 50% inhibition at 10 μM)
A11 radioligand binding inhibition [3]: − (“−” indicates less than 50% inhibition at 10 μM)
A3 radioligand binding inhibition [4]: + (“+” indicates greater than 50% inhibition at 10 μM)
A9 radioligand binding inhibition [5]: − (“−” indicates less than 50% inhibition at 10 μM)
A1 radioligand binding inhibition [6]: − (“−” indicates less than 50% inhibition at 10 μM)
A5 radioligand binding inhibition [7]: + (“+” indicates greater than 50% inhibition at 10 μM)
A4 radioligand binding inhibition [8]: + (“+” indicates greater than 50% inhibition at 10 μM)
A10 radioligand binding inhibition [9]: + (“+” indicates greater than 50% inhibition at 10 μM)
A6 radioligand binding inhibition [10]: + (“+” indicates greater than 50% inhibition at 10 μM)
A7 radioligand binding inhibition [11]: + (“+” indicates greater than 50% inhibition at 10 μM)

CO[C@H]1[C@H](O)[C@@H](COCc2ccc3ccccc3c2)OC(OCc2ccc3ccccc3c2)[C@@H]1NC(=O)CCCN (stereo partly drawn) [compound 72]
A2 radioligand binding inhibition [1]: − (“−” indicates less than 50% inhibition at 10 μM)
A8 radioligand binding inhibition [2]: + (“+” indicates greater than 50% inhibition at 10 μM)
A11 radioligand binding inhibition [3]: − (“−” indicates less than 50% inhibition at 10 μM)
A3 radioligand binding inhibition [4]: − (“−” indicates less than 50% inhibition at 10 μM)
A9 radioligand binding inhibition [5]: − (“−” indicates less than 50% inhibition at 10 μM)
A1 radioligand binding inhibition [6]: − (“−” indicates less than 50% inhibition at 10 μM)
A5 radioligand binding inhibition [7]: + (“+” indicates greater than 50% inhibition at 10 μM)
A4 radioligand binding inhibition [8]: + (“+” indicates greater than 50% inhibition at 10 μM)
A10 radioligand binding inhibition [9]: − (“−” indicates less than 50% inhibition at 10 μM)
A6 radioligand binding inhibition [10]: − (“−” indicates less than 50% inhibition at 10 μM)
A7 radioligand binding inhibition [11]: − (“−” indicates less than 50% inhibition at 10 μM)

CO[C@H]1[C@H](O)[C@@H](COCc2ccc3ccccc3c2)OC(OCc2ccc3ccccc3c2)[C@@H]1NC(=O)CCCNC(=N)N (stereo partly drawn) [compound 73]
A2 radioligand binding inhibition [1]: + (“+” indicates greater than 50% inhibition at 10 μM)
A8 radioligand binding inhibition [2]: + (“+” indicates greater than 50% inhibition at 10 μM)
A11 radioligand binding inhibition [3]: − (“−” indicates less than 50% inhibition at 10 μM)
A3 radioligand binding inhibition [4]: − (“−” indicates less than 50% inhibition at 10 μM)
A9 radioligand binding inhibition [5]: − (“−” indicates less than 50% inhibition at 10 μM)
A1 radioligand binding inhibition [6]: − (“−” indicates less than 50% inhibition at 10 μM)
A5 radioligand binding inhibition [7]: + (“+” indicates greater than 50% inhibition at 10 μM)
A4 radioligand binding inhibition [8]: − (“−” indicates less than 50% inhibition at 10 μM)
A10 radioligand binding inhibition [9]: + (“+” indicates greater than 50% inhibition at 10 μM)
A6 radioligand binding inhibition [10]: − (“−” indicates less than 50% inhibition at 10 μM)
A7 radioligand binding inhibition [11]: + (“+” indicates greater than 50% inhibition at 10 μM)

CO[C@H]1[C@H](O)[C@@H](COCc2ccccc2)OC(OCc2ccc3ccccc3c2)[C@@H]1NC(=O)CNC(=N)N (stereo partly drawn) [compound 74]
A2 radioligand binding inhibition [1]: − (“−” indicates less than 50% inhibition at 10 μM)
A8 radioligand binding inhibition [2]: + (“+” indicates greater than 50% inhibition at 10 μM)
A11 radioligand binding inhibition [3]: − (“−” indicates less than 50% inhibition at 10 μM)
A3 radioligand binding inhibition [4]: − (“−” indicates less than 50% inhibition at 10 μM)
A9 radioligand binding inhibition [5]: − (“−” indicates less than 50% inhibition at 10 μM)
A1 radioligand binding inhibition [6]: − (“−” indicates less than 50% inhibition at 10 μM)
A5 radioligand binding inhibition [7]: + (“+” indicates greater than 50% inhibition at 10 μM)
A4 radioligand binding inhibition [8]: − (“−” indicates less than 50% inhibition at 10 μM)
A10 radioligand binding inhibition [9]: − (“−” indicates less than 50% inhibition at 10 μM)
A6 radioligand binding inhibition [10]: − (“−” indicates less than 50% inhibition at 10 μM)
A7 radioligand binding inhibition [11]: + (“+” indicates greater than 50% inhibition at 10 μM)

CO[C@H]1[C@H](O)[C@@H](COCc2ccccc2)OC(OCc2ccc3ccccc3c2)[C@@H]1NC(=O)CCNC(=N)N (stereo partly drawn) [compound 75]
A2 radioligand binding inhibition [1]: − (“−” indicates less than 50% inhibition at 10 μM)
A8 radioligand binding inhibition [2]: + (“+” indicates greater than 50% inhibition at 10 μM)
A11 radioligand binding inhibition [3]: − (“−” indicates less than 50% inhibition at 10 μM)
A3 radioligand binding inhibition [4]: − (“−” indicates less than 50% inhibition at 10 μM)
A9 radioligand binding inhibition [5]: − (“−” indicates less than 50% inhibition at 10 μM)
A1 radioligand binding inhibition [6]: − (“−” indicates less than 50% inhibition at 10 μM)
A5 radioligand binding inhibition [7]: − (“−” indicates less than 50% inhibition at 10 μM)
A4 radioligand binding inhibition [8]: − (“−” indicates less than 50% inhibition at 10 μM)
A10 radioligand binding inhibition [9]: − (“−” indicates less than 50% inhibition at 10 μM)
A6 radioligand binding inhibition [10]: − (“−” indicates less than 50% inhibition at 10 μM)
A7 radioligand binding inhibition [11]: + (“+” indicates greater than 50% inhibition at 10 μM)

CO[C@H]1[C@H](O)[C@@H](COCc2ccccc2)OC(OCc2ccc3ccccc3c2)[C@@H]1NC(=O)CCCN (stereo partly drawn) [compound 76]
A2 radioligand binding inhibition [1]: − (“−” indicates less than 50% inhibition at 10 μM)
A8 radioligand binding inhibition [2]: + (“+” indicates greater than 50% inhibition at 10 μM)
A11 radioligand binding inhibition [3]: − (“−” indicates less than 50% inhibition at 10 μM)
A3 radioligand binding inhibition [4]: − (“−” indicates less than 50% inhibition at 10 μM)
A9 radioligand binding inhibition [5]: − (“−” indicates less than 50% inhibition at 10 μM)
A1 radioligand binding inhibition [6]: − (“−” indicates less than 50% inhibition at 10 μM)
A5 radioligand binding inhibition [7]: − (“−” indicates less than 50% inhibition at 10 μM)
A4 radioligand binding inhibition [8]: − (“−” indicates less than 50% inhibition at 10 μM)
A10 radioligand binding inhibition [9]: − (“−” indicates less than 50% inhibition at 10 μM)
A6 radioligand binding inhibition [10]: − (“−” indicates less than 50% inhibition at 10 μM)
A7 radioligand binding inhibition [11]: − (“−” indicates less than 50% inhibition at 10 μM)
